Data reported in publication PMC6805867, “Amphiphilic Triazine Polymer Derivatives as Antibacterial And Anti-atopic Agents in Mice Model” (Scientific Reports, 2019).

Key:
[1] = system: selected bacterial strains; test: Geometric mean of MIC values over the bacterial strains; type: cell-based; settings: geometric mean of MIC values from selected six bacterial strains (footnote b)
Protocol: (§1) The bacterial strains employed in the experiment were Escherichia coli (KCTC 1682), Pseudomonas aeruginosa (KCTC 1637), Bacillus subtilis (KCTC 3068), Staphylococcus aureus (KCTC 1621), three methicillin-resistant Staphylococcus aureus (CCARM 3089, 3090 and 3095), two multidrug-resistant Pseudomonas aeruginosa (CCARM 2095 and 2109) and vancomycin-resistant Enterococcus faecium (ATCC 51559). The antimicrobial activities of polymers were determined by the broth microdilution method, and the procedures were used as previously reported. Briefly, bacteria grown to mid-logarithmic phase in LB broth were diluted to 2 × 10^6 CFU/mL in 1% peptone and added to serial two-fold dilutions of different polymers ranging from 1 to 64 μg/mL. The plates were incubated in a shaking incubator at 37 °C for 18–22 h. The minimum inhibitory concentration (MIC) was determined by confirming the absence of bacterial growth both visually and spectrophotometrically by OD600 readings taken by a microplate ELISA reader (Molecular Devices, Sunnyvale, CA, USA). All measurements were performed three times.

[2] = system: Methicillin-resistant Staphylococcus aureus (MRSA) CCARM 3090; type: cell-based; settings: broth microdilution, 37 °C, 18–22 h
Protocol: as §1

[3] = system: Vancomycin-resistant Enterococcus faecium (VREF) ATCC 51559; test: MIC against antibiotic-resistant bacteria; type: cell-based; settings: broth microdilution, 37 °C, 18–22 h
Protocol: as §1

trypsin = test: Protease stability, radial diffusion assay after tryptic digestion; type: in vitro ADME; settings: trypsin 0.2 μg/mL in PBS, 37 °C (24 h, 4 h elsewhere in the source), clearance zones against E.coli and S.aureus
Protocol: The protease stability of triazine based polymers (TZP3 and TZP5) was performed by the radial diffusion assay as described previously. Briefly, a bacteria suspension (2×10^6 CFU/mL in LB) was mixed with 0.7% agarose. This mixture was poured into a 10-cm petri dish, and it dispersed rapidly. […] The reaction was stopped by freezing with liquid nitrogen, after which 10 μL aliquots were placed in each circle paper, put on the agarose plates, and then incubated at 37 °C overnight. The diameters of the bacterial clearance zones surrounding the circle paper were measured for the quantitation of inhibitory activities.

TNF-α in RBL-2H3 cells = test: Production of TNF-α induced by A23187 and PMA; type: cell-based, rat; settings: 1 μM A23187 and 80 nM PMA, 4 h
Protocol: The inhibition of TNF-α release induced by A23187 and PMA from the RBL-2H3 cells was assessed by using a previously reported method. The RBL-2H3 cells (2 × 10^5 cells/well) were cultured with 1 μM A23187 and 80 nM PMA for 4 h at 37 °C, after exposure to 0, 15.625, 31.25, 62.5, or 125 μg/mL 30 min of the TZP3 and TZP5. Next, the cells were used for RT-PCR.
Effect of TZP3 and TZP5 on TNF-α suppression
Therefore, the dimer TZP3 and trimer TZP5 were probed for their potential for inhibiting the TNF-α induced from RBL-2H3 cells in in vitro method.
Calcium ionophore A23187 and PMA induced the TNF-α secretion in RBL-2H3 cells, on the contrary, treatment of which with TZP3 and TZP5
Figure S1. Inhibitory effects of the TZP3 and TZP5 on A23187 and PMA-induced TNF-α induced from RBL-2H3 cells. […]

[4] = system: dorsal skin of AD-induced BALB/c mice; test: DNCB-induced AD model, histological observations (H&E, toluidine blue); type: in vivo; settings: versus AD mice; for decrease in both epidermal and dermal thickness: 200 μg/mL topical daily for 18 days, H&E staining; for infiltration of mast cells in the skin lesions: topical application, toluidine blue staining
Protocol: (§2) As described in our previous article, the 7-week-old female BALB/c mice were divided into seven groups (n = 8 per group): Control (Con) group, TZP3 200 μg/mL (TZP3) group, and TZP5 200 μg/mL (TZP5) group, DNCB-sensitized only (AD) group, DNCB-sensitized + TZP3 200 μg/mL (AD + TZP3) group, DNCB-sensitized + TZP5 200 μg/mL (AD + TZP5) group, DNCB-sensitized + Dermatop (Sanofi, Korea) 0.25% (AD + Dermatop) group. Dermatop was used as a positive control treatment. For the first induction of AD in the BALB/c mice, the backs of the mice were shaved and challenged with 200 μL of 1% 2,4-dinitrochlorobenzene(DNCB) in acetone/olive oil (3:1) one time (day−4). After 4 days from the induction, 0.5% DNCB was painted onto the backs of the mice every two days (day 2, 4, 6, 8, 10, 12, 14, 16 and 18). Concentrations of 200 μg/mL TZP3 or TZP5 in 20 μL of PBS were applied to the dorsal skin once daily for 18 days.
As described in our previous article, the skin tissues of the mice were […] in 10% neutral buffered formalin (NBF) for 24 h and embedded in white paraffin. Serial paraffin‐sections with 5 µm thickness, were prepared and stained with hematoxylin-eosin (H&E) or toluidine blue. The thickness of the epidermis and dermis was measured under a microscope. The number of mast cells stained by toluidine blue in the upper dermis in a field of 0.25 mm × 0.25 mm (0.0625 mm^2) was counted under the microscope. The cells in five fields (0.3125 mm^2 in total) of the upper dermis were counted, and an estimate of the number of cells per 1 mm^2 was made for each mouse specimen.

[5] = system: TGF-β, TNF-α, iNOS, COX-2 protein in dorsal tissue; test: DNCB-induced AD model, western blot of inflammatory mediators; type: in vivo, BALB/c mice; settings: versus AD mice
Protocol: as §2
Frozen skins from the mice were homogenized in liquid nitrogen. For the western blot analysis, the tissues were lysed in a RIPA lysis buffer(Sigma) containing 1% protease inhibitor. The cell lysates were incubated on ice for 1 h and then the homogenates were centrifuged at 13000 rpm for 20 min at 4 °C. […] The antibody-specific proteins were visualized with enhanced chemiluminescence (ECL) detection reagent and quantified using the ImageJ software. […]

[6] = system: lymph node and spleen of AD-induced mice; test: DNCB-induced AD model, lymph node and spleen weight and size; type: in vivo, BALB/c mice; settings: for weight and size of spleen: compared to AD-induced mice, p < 0.05 for weight; for decrease in both weight and size of lymph node: compared to untreated AD-mice
Protocol: as §2

| SMILES | GM (geometric mean of MIC values) [1] | MIC MRSA CCARM 3090 [2] | MIC VREF ATCC 51559 [3] | antibacterial activity after incubation with trypsin (trypsin) | TNF-α suppression (TNF-α in RBL-2H3 cells; 15.6 μg/mL) | TNF-α suppression (TNF-α in RBL-2H3 cells; 31.2 μg/mL) | TNF-α suppression (TNF-α in RBL-2H3 cells; 62.5 μg/mL) | TNF-α suppression (TNF-α in RBL-2H3 cells; 125 μg/mL) | decrease in both epidermal and dermal thickness [4] | infiltration of mast cells in the skin lesions [4] | protein expressions (TGF-β, TNF-α, iNOS, COX-2) in dorsal tissue [5] | weight and size of spleen [6] | decrease in both weight and size of lymph node [6] |
| --- | --- | --- | --- | --- | --- | --- | --- | --- | --- | --- | --- | --- | --- |
| NCCCN(CCCN)c1nc(Cl)nc(NCCNc2nc(NCCNc3nc(N)nc(NCCC(c4ccccc4)c4ccccc4)n3)nc(N(CCCN)CCCN)n2)n1 [TZP5] | 3.0 µg/mL | 4 [3] µg/mL | 4 [3] µg/mL | did not lose any of their antibacterial effects | didn’t show appreciable TNF-α suppressions | didn’t show appreciable TNF-α suppressions | dose-dependent manner | dose-dependent manner | more than 50% | significantly suppressed | significant decrease | significant decrease | more than 35% |
| NCCCN(CCCN)c1nc(N)nc(NCCNc2nc(Cl)nc(N(Cc3ccccc3)Cc3ccccc3)n2)n1 [TZP3] | 4.5 [7.6] μg/mL | 8 [13.5] µg/mL | 8 [13.5] µg/mL | did not lose any of their antibacterial effects | ~10% | ~10% | approximately 70% | ~90% | more than 50% | significantly suppressed | significant decrease | significant decrease | more than 35% |
